According to ChEMBL document CHEMBL1201862, “PubChem BioAssay data set” (2004):
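All cell lines were grown in 96-well plates and treated with compound for 48 hours. GI50 marks 50% less growth.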 Activity calls are given as the source filed them. Rule as the data show it: active = GI50 up to about 1.1 µM and inactive = higher.

Columns and labels:
Assay in all cases: NCI tumour cell line growth inhibition, 48 h
SNB-19 = tested on: SNB-19
KM12 = tested on: KM12
MDA-MB-435 = tested on: MDA-MB-435
DU-145 = tested on: DU-145
NCI-H226 = tested on: NCI-H226
OVCAR-8 = tested on: OVCAR-8
LOX IMVI = tested on: LOX IMVI
EKVX = tested on: EKVX
SN12C = tested on: SN12C
OVCAR-3 = tested on: OVCAR-3
TK-10 = tested on: TK-10
MDA-N = tested on: MDA-N
PC-3 = tested on: PC-3
IGROV-1 = tested on: IGROV-1
SK-MEL-5 = tested on: SK-MEL-5
SF-539 = tested on: SF-539
NCI-H522 = tested on: NCI-H522
HL-60 = tested on: HL-60
HOP-62 = tested on: HOP-62
SK-OV-3 = tested on: SK-OV-3

Measured: GI50

CC1(C)C2CCC1C(=O)[C@@]1(C=CC(=O)CC1)C2 (stereo not given in full)
inactive: SNB-19 > 100 µM | KM12 > 100 µM | MDA-MB-435 > 100 µM | DU-145 > 100 µM | NCI-H226 > 100 µM | OVCAR-8 > 100 µM | LOX IMVI > 100 µM | EKVX > 100 µM | SN12C > 100 µM | OVCAR-3 > 100 µM | TK-10 > 100 µM | MDA-N > 100 µM | PC-3 > 100 µM | IGROV-1 > 100 µM | SK-MEL-5 > 100 µM | SF-539 > 100 µM | NCI-H522 > 100 µM | HL-60 > 100 µM | HOP-62 > 100 µM | SK-OV-3 > 100 µM

Cc1nn(C(=O)c2ccncc2)c2c1C(c1cccc([N+](=O)[O-])c1)SC(=N)N2 (stereo not given)
inactive: SNB-19 > 10 µM | KM12 > 10 µM | MDA-MB-435 > 10 µM | DU-145 > 10 µM | NCI-H226 > 10 µM | OVCAR-8 > 10 µM | LOX IMVI > 10 µM | EKVX > 10 µM | SN12C > 10 µM | OVCAR-3 > 10 µM | TK-10 > 10 µM | MDA-N > 10 µM | PC-3 > 10 µM | IGROV-1 > 10 µM | SK-MEL-5 > 10 µM | SF-539 > 10 µM | NCI-H522 > 10 µM | HL-60 > 10 µM | HOP-62 > 10 µM | SK-OV-3 > 10 µM

CC(C)=NOC(=O)OC[C@H]1O[C@@H](n2cnc3c(N)ncnc32)C(O)C1O (stereo not given in full)
inactive: SNB-19 > 100 µM | KM12 > 100 µM | MDA-MB-435 82.6 µM | DU-145 > 100 µM | NCI-H226 > 100 µM | OVCAR-8 > 100 µM | LOX IMVI 44.9 µM | EKVX > 100 µM | SN12C > 100 µM | OVCAR-3 > 100 µM | TK-10 > 100 µM | MDA-N 43.3 µM | PC-3 > 100 µM | IGROV-1 > 100 µM | SK-MEL-5 > 100 µM | SF-539 > 100 µM | NCI-H522 > 100 µM | HL-60 45.7 µM | HOP-62 > 100 µM | SK-OV-3 > 100 µM

CN1CC2=C(N=C(S)NC2c2ccccc2Cl)/C(=C/c2ccccc2Cl)C1 (stereo not given)
inactive: SNB-19 > 100 µM | KM12 56.1 µM | MDA-MB-435 28.8 µM | DU-145 76.2 µM | NCI-H226 52.7 µM | OVCAR-8 33 µM | LOX IMVI 51.1 µM | EKVX 43.2 µM | SN12C 46.2 µM | OVCAR-3 21.5 µM | TK-10 71.3 µM | MDA-N 60.3 µM | PC-3 26.5 µM | IGROV-1 53.7 µM | SK-MEL-5 12.2 µM | SF-539 73.6 µM | NCI-H522 29.6 µM | HL-60 21.8 µM | HOP-62 > 100 µM | SK-OV-3 > 100 µM
